From patent US20050234046A1 (Kalypsys, Inc., priority 2004, published 2005)

Legend:
Assay in all cases: Transient transfection (transactivation) assay in CV-1 cells, GAL4-PPAR chimera, luciferase reporter
Type in all cases: cell-based
PPAR alpha = target: T1, PPAR alpha (Homo sapiens, UniProt Q07869)
T1 construct: expressed in transfected cells; host or cells: CV-1 cells
T1 sequence (Q07869 239-466 limits assumed): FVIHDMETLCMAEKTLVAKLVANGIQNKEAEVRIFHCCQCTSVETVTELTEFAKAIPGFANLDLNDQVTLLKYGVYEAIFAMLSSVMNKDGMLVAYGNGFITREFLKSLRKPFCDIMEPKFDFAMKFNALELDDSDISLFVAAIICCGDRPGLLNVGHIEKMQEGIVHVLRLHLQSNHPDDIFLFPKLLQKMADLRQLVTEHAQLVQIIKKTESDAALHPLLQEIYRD
Method in brief: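 GAL4 DNA-binding domain fused to PPAR ligand binding domain, co-transfected into CV-1 cells with a luciferase reporter carrying four or five GAL4 sites. Replated cells in phenol-red free DME with 5% delipidated calf serum were treated with compound or 1% DMSO for 20-24 hours; luciferase read for EC50 and efficacy.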

PPAR delta = target: T2, PPAR delta (Homo sapiens, UniProt Q03181)
T2 construct: expressed in transfected cells; host or cells: CV-1 cells
T2 sequence (Q03181 211-439 limits assumed): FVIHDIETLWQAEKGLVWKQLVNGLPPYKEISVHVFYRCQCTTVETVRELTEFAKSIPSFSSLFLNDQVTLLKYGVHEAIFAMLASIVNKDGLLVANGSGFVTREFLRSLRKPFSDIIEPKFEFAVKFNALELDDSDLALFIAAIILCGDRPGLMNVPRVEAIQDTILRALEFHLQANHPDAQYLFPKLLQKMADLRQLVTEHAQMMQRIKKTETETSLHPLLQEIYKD

PPAR gamma = target: T3, PPAR gamma (Homo sapiens, UniProt P37231)
T3 construct: expressed in transfected cells; host or cells: CV-1 cells
T3 sequence (P37231 238-503 limits assumed): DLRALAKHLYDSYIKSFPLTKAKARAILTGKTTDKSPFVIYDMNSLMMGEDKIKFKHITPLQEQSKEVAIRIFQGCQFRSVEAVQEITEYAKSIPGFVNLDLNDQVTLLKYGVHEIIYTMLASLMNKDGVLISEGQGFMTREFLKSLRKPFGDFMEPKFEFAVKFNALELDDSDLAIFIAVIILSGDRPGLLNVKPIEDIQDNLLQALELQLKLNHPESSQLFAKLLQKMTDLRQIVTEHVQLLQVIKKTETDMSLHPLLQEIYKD

Row | Compound | EC50 (PPAR alpha) | EC50 (PPAR delta) | EC50 (PPAR gamma)
1 | COc1ccc(S(=O)(=O)N2[C@H](C)CN(c3ccc(C(F)(F)F)cn3)C[C@@H]2C)cc1CC(=O)O [Example 78, {5-[2,6-Dimethyl-4-(5-trifluoromethyl-pyridin-2-yl)-piperazine-1-sulfonyl]-2-methoxy-phenyl}-acetic acid] | > 100 µM | < 5 µM | > 100 µM
2 | COc1ccc(CC(=O)O)cc1S(=O)(=O)N1CCN(c2ccc(C(F)(F)F)cc2)CC1 [Example 79, {4-Methoxy-3-[4-(4-trifluoromethyl-phenyl)-piperazine-1-sulfonyl]-phenyl}-acetic acid] | > 100 µM | < 5 µM | 5 to 100 µM
3 | COc1ccc(CC(=O)O)cc1S(=O)(=O)N1CCN(c2ccc(C(F)(F)F)cn2)CC1 [Example 80] | > 100 µM | < 5 µM | 5 to 100 µM
4 | COc1ccc(CC(=O)O)cc1S(=O)(=O)N1CCN(c2ccc(C(F)(F)F)cn2)CC1C (stereo not drawn) [Example 81, {4-Methoxy-3-[2-methyl-4-(5-trifluoromethyl-pyridin-2-yl)-piperazine-1-sulfonyl]-phenyl}-acetic acid] | > 100 µM | 5 to 100 µM | 5 to 100 µM
5 | COc1ccc(CC(=O)O)cc1S(=O)(=O)N1[C@H](C)CN(c2ccc(C(F)(F)F)cn2)C[C@@H]1C [Example 82, {3-[2,6-Dimethyl-4-(5-trifluoromethyl-pyridin-2-yl)-piperazine-1-sulfonyl]-4-methoxy-phenyl}-acetic acid] | > 100 µM | 5 to 100 µM | > 100 µM
6 | Cc1ccc(S(=O)(=O)N2[C@H](C)CN(c3ccc(Cl)c(Cl)c3)C[C@@H]2C)cc1CC(=O)O [Example 83, {5-[4-(3,4-Dichloro-phenyl)-2,6-dimethyl-piperazine-1-sulfonyl]-2-methyl-phenyl}-acetic acid] | > 100 µM | < 5 µM | > 100 µM
7 | CN(C)Cc1cc(CC(=O)O)cc(S(=O)(=O)N2CCN(c3ccc(C(F)(F)F)cc3)CC2)c1 [Example 84, {3-Dimethylaminomethyl-5-[4-(4-trifluorometbyl-phenyl)-piperazine-1-sulfonyl]-phenyl}-acetic acid] | > 100 µM | > 100 µM | > 100 µM
8 | COCc1cc(CC(=O)O)cc(S(=O)(=O)N2CCN(c3ccc(C(F)(F)F)cc3)CC2)c1 [Example 85, {3-Methoxymethyl-5-[4-(4-trifluoromethyl-phenyl)-piperazine-1-sulfonyl]-phenyl}-acetic acid] | > 100 µM | 5 to 100 µM | > 100 µM
9 | Cc1ccc(S(=O)(=O)N2CCN(c3cnc(Cl)cn3)CC2)cc1CC(=O)O [Example 86] | > 100 µM | > 100 µM | > 100 µM
10 | CCNCc1cc(CC(=O)O)cc(S(=O)(=O)N2CCN(c3ccc(C(F)(F)F)cc3)CC2)c1 [Example 88, {3-Ethylaminomethyl-5-[4-(4-trifluoromethyl-phenyl)-piperazine-1-sulfonyl]-phenyl}-acetic acid] | > 100 µM | > 100 µM | > 100 µM
11 | COCCNCc1cc(CC(=O)O)cc(S(=O)(=O)N2CCN(c3ccc(C(F)(F)F)cc3)CC2)c1 [Example 89, {3-[(2-Methoxy-ethylamino)-methyl]-5-[4-(4-trifluoromethyl-phenyl)-piperazine-1-sulfonyl]-phenyl}-acetic acid] | > 100 µM | > 100 µM | > 100 µM
12 | O=C(O)Cc1cc(COCCO)cc(S(=O)(=O)N2CCN(c3ccc(C(F)(F)F)cc3)CC2)c1 [Example 91, {3-(2-Hydroxy-ethoxymethyl)-5-[4-(4-trifluoromethyl-phenyl)-piperazine-1-sulfonyl]-phenyl}-acetic acid] | > 100 µM | > 100 µM | > 100 µM
13 | Cc1ccc(S(=O)(=O)N2CCN(c3ccc(C(F)(F)F)nc3)CC2)cc1CC(=O)O [Example 95, {2-Methyl-5-[4-(6-trifluoromethyl-pyridin-3-yl)-piperazine-1-sulfonyl]-phenyl}-acetic acid] | > 100 µM | < 5 µM | > 100 µM
14 | Cc1ccc(S(=O)(=O)N2CCN(c3ccc(Cl)c(Cl)c3)C[C@@H]2C)cc1CC(=O)O [Example 101, {5-[4-(3,4-Dichloro-phenyl)-2-(S)-methyl-piperazine-1-sulfonyl]-2-methyl-phenyl}-acetic acid] | 5 to 100 µM | < 5 µM | 5 to 100 µM
15 | Cc1ccc(S(=O)(=O)N2CCN(c3ccc(Cl)c(Cl)c3)[C@@H](C)C2)cc1CC(=O)O [Example 102, {5-[4-(3,4-Dichloro-phenyl)-3-(S)-methyl-piperazine-1-sulfonyl]-2-methyl-phenyl}-acetic acid] | 5 to 100 µM | < 5 µM | 5 to 100 µM
16 | Cc1ccc(S(=O)(=O)N2[C@@H](C)CN(c3ccc(C(F)(F)F)cn3)C[C@@H]2C)cc1CC(=O)O [Example 103, {5-[2,6-(S,S)-Dimethyl-4-(5-trifluoromethyl-pyridin-2-yl)-piperazine-1-sulfonyl]-2-methyl-phenyl}-acetic acid] | 5 to 100 µM | < 5 µM | 5 to 100 µM
17 | Cc1ccc(S(=O)(=O)N2[C@H](C)CN(c3ccc(C(F)(F)F)c(Cl)c3)C[C@@H]2C)cc1CC(=O)O [Example 107, {5-[4-(3-Chloro-4-trifluoromethyl-phenyl)-2,6-dimethyl-piperazine-1-sulfonyl]-2-methyl-phenyl}-acetic acid] | > 100 µM | < 5 µM | > 100 µM
18 | Cc1ccc(S(=O)(=O)N2C[C@H](C)N(c3ccc(C(F)(F)F)cn3)[C@@H](C)C2)cc1CC(=O)O [Example 108, {5-[3,5-(S,S)-Dimethyl-4-(5-trifluoromethyl-pyridin-2-yl)-piperazine-1-sulfonyl]-2-methyl-phenyl}-acetic acid] | 5 to 100 µM | < 5 µM | 5 to 100 µM

Other lines, results leading:

Row | EC50 (PPAR alpha) | EC50 (PPAR delta) | EC50 (PPAR gamma) | Compound
19 | < 5 µM | < 5 µM | 5 to 100 µM | Cc1ccc(S(=O)(=O)N2CCN(c3ccc(OC(F)(F)F)cc3)CC2)cc1CC(=O)O [Example 87, {2-Methyl-5-[4-(4-trifluoromethoxy-phenyl)-piperazine-1-sulfonyl]-phenyl}-acetic acid]
20 | < 5 µM | < 5 µM | 5 to 100 µM | Cc1ccc(S(=O)(=O)N2CCN(c3ccc(C(F)(F)F)c(F)c3)[C@@H](C)C2)cc1CC(=O)O [Example 90, {5-[4-(3-Fluoro-4-trifluoromethyl-phenyl)-3-(S)-methyl-piperazine-1-sulfonyl]-2-methyl-phenyl}-acetic acid]
21 | < 5 µM | < 5 µM | > 100 µM | O=C(O)Cc1cccc(S(=O)(=O)N2CCN(c3ccc(OC(F)(F)F)cc3)CC2)c1 [Example 92, {3-[4-(4-Trifluoromethoxy-phenyl)-piperazine-1-sulfonyl]-phenyl}-acetic acid]
22 | < 5 µM | < 5 µM | 5 to 100 µM | Cc1ccc(S(=O)(=O)N2CCN(c3ccc(C(F)(F)F)c(Cl)c3)CC2)cc1CC(=O)O [Example 93, {5-[4-(3-Chloro-4-trifluorometbyl-phenyl)-piperazine-1-sulfonyl]-2-methyl-phenyl}-acetic acid]
23 | 5 to 100 µM | < 5 µM | < 5 µM | CCC1CN(S(=O)(=O)c2ccc(C)c(CC(=O)O)c2)CCN1c1ccc(C(F)(F)F)cn1 (stereo not drawn) [Example 94, {5-[3-Ethyl-4-(5-trifluoromethyl-pyridin-2-yl)-piperazine-1-sulfonyl]-2-methyl-phenyl}-acetic acid]
24 | < 5 µM | < 5 µM | > 100 µM | O=C(O)Cc1cccc(S(=O)(=O)N2CCN(c3ccc(C(F)(F)F)cc3Br)CC2)c1 [Example 96]
25 | < 5 µM | < 5 µM | > 100 µM | Cc1ccc(S(=O)(=O)N2CCN(c3ccc(C(F)(F)F)cc3Br)CC2)cc1CC(=O)O [Example 97, {5-[4-(2-Bromo-4-trifluoromethyl-phenyl)-piperazine-1-sulfonyl]-2-methyl-phenyl-}acetic acid]
26 | < 5 µM | < 5 µM | > 100 µM | CCC1CN(c2ccc(C(F)(F)F)c(Cl)c2)CCN1S(=O)(=O)c1ccc(C)c(CC(=O)O)c1 (stereo not drawn) [Example 98, {5-[2-Ethyl-4-(3-chloro-4-trifluoromethyl-phenyl)-piperazine-1-sulfonyl]-2-methyl-phenyl}-acetic acid]
27 | < 5 µM | < 5 µM | 5 to 100 µM | Cc1ccc(S(=O)(=O)N2CCN(c3ccc(OC(F)(F)F)cc3)[C@@H](C)C2)cc1CC(=O)O [Example 99]
28 | 5 to 100 µM | < 5 µM | 5 to 100 µM | Cc1ccc(S(=O)(=O)N2[C@H](C)CN(c3ccc(OC(F)(F)F)cc3)C[C@@H]2C)cc1CC(=O)O [Example 100, {5-[2,6-Dimethyl-4-(4-trifluoromethoxy-phenyl)-piperazine-1-sulfonyl]-2-methyl-phenyl}-acetic acid]
